Results taken from patent publication US11339140B2, “Compositions and methods comprising substituted 2-aminoimidazoles” (Curza Global, LLC, priority 2017, dated 2022).
Values after ≈ are worked out from the molar mass of the structure shown.

Legend:
[1] = tested on: Candida albicans; settings: cited from earlier work
[2] = tested on: Mycobacterium tuberculosis; settings: cited from earlier work
[3] = tested on: breast cancer; assay: cancer-selective cell death with Zn2+; format: cell-based; settings: caspase-independent mechanism
[4] = tested on: primary metastatic cells derived from breast cancer patients; assay: activity against primary metastatic cells derived from breast cancer patients; format: cell-based, human; settings: patients treated with multiple frontline chemotherapeutics
[5] = tested on: mouse mammary tumor model; assay: mouse mammary tumor model; format: in vivo

Row | Compound | MIC100 against Candida albicans [1] [µM] | IC50 against Mycobacterium tuberculosis [2] [µg/mL] | synergy with Zn2+ in inducing cancer-selective cell death [3] | efficacy against primary metastatic cells from breast cancer patients [4] | in vivo efficacy [5]
1 | COc1ccc(Cc2nc(NC3=NC(=O)N(C)C3=O)n(C)c2Cc2ccc(O)cc2)cc1 [Naamidine A] | 0.78 (≈ 0.338 µg/mL) | 0.41 (≈ 0.946 µM) |  |  | 
2 | COc1ccc(-c2c(Cc3ccccc3)[nH]/c(=N\C(=O)c3ccccc3F)n2C)cc1 [ZNA] |  |  | synergizes strongly with Zn^2+ to induce cancer-selective cell death | effective | in vivo efficacy was established
